# US9732063B2, “Kinase inhibitors” (RESPIVERT LIMITED, priority 2012, dated 2017)
# Assays:
# [1] = test system: PBMCs; experiment: LPS-induced TNFα/IL-8 release in PBMC cells; format: cell-based; conditions: Homo sapiens, read-out: IC50 Values for Inhibition of Cytokine Release PBMCs IL-8
# Protocol: Peripheral blood mononuclear cells (PBMCs) from healthy subjects are separated from whole blood using a density gradient (Lymphoprep, Axis-Shield Healthcare). The PBMCs are seeded in 96 well plates and treated with compounds at the desired concentration for 2 hours before addition of 1 ng/mL LPS (Escherichia Coli O111:B4 from Sigma Aldrich) for 24 hours under normal tissue culture conditions (37° C., 5% CO2). The supernatant is harvested for determination of IL-8 and TN Fa concentrations by sandwich ELISA (Duo-set, R&D systems) and read on the fluorescence microplate reader (Varioskan® Flash, ThermoFisher Scientific).
# [2] = molecular target: Syk (Homo sapiens (Human), UniProt P43405); experiment: Syk enzyme inhibition (Z-LYTE FRET); format: biochemical
# Protocol: (§1) The enzyme inhibitory activities of compounds disclosed herein are determined by FRET using synthetic peptides labelled with both donor and acceptor fluorophores (Z-LYTE, Invitrogen Ltd., Paisley, UK).
# (§2) The relevant enzyme (3000 ng/mL or 2000 ng/mL respectively, 2.5 μL) is incubated with the test compound (either 4 μg/mL, 0.4 μg/mL, 0.04 μg/mL, or 0.004 μg/mL, 2.5 μL each) for 2 hr at RT. The FRET peptides (8 μM, 2.5 μL), and appropriate ATP solutions (2.5 μL, 800 μM for c-Src, and 60 μM ATP for Syk) are then added to the enzymes/compound mixtures and incubated for 1 hr. Development reagent (protease, 5 μL) is added for 1 hr prior to detection in a fluorescence microplate reader (Varioskan® Flash, ThermoFisher Scientific).
# (§3) In all cases, the site-specific protease cleaves non-phosphorylated peptide only and eliminates the FRET signal. Phosphorylation levels of each reaction are calculated using the ratio of coumarin emission (donor) over fluorescein emission (acceptor), for which high ratios indicate high phosphorylation and low ratios indicate low phosphorylation levels.
# [3] = molecular target: c-Src (Homo sapiens (Human), UniProt P12931); experiment: c-Src enzyme inhibition (Z-LYTE FRET); format: biochemical
# Protocol: as §1, §2, §3
# [4] = molecular target: GSK3α (Homo sapiens (Human), UniProt P49840); experiment: GSK 3α enzyme inhibition (Z-LYTE FRET, Method 2); format: biochemical
# Protocol: as §1
# The inhibitory activities of compounds of the invention against the GSK 3α enzyme isoform (Invitrogen), are evaluated by determining the level of activation/phosphorylation of the target peptide. The GSK3-α protein (500 ng/mL, 2.5 μL) is mixed with the test compound (2.5 μL at either 4 μg/mL, 0.4 μg/mL, 0.04 μg/mL, or 0.004 μg/mL) for 2 hr at RT. The FRET peptide (8 μM, 2.5 μL), which is a phosphorylation target for GSK3α, and ATP (40 μM, 2.5 μL) are then added to the enzyme/compound mixture and the resulting mixture incubated for 1 hr. Development reagent (protease, 5 μL) is added for 1 hr prior to detection in a fluorescence microplate reader (Varioskan® Flash, ThermoFisher Scientific).
# as §3
# [5] = test system: PBMCs; experiment: IL-2 and IFN gamma release in CD3/CD28 stimulated PBMC cells; format: cell-based; conditions: Homo sapiens
# Protocol: PBMCs from healthy subjects are separated from whole blood using a density gradient (Lymphoprep, Axis-Shield Healthcare). Cells are added to a 96 well plate pre-coated with a mixture of CD3/CD38 monoclonal antibodies (0.3 μg/mL eBioscience and 3 μg/mL BD Pharmingen respectively). Compound at the desired concentration is then added to the wells and the plate left for 3 days under normal tissue culture conditions. Supernatants are harvested and IL-2 and IFN gamma release determined by Sandwich ELISA (Duo-set, R&D System). The IC50 is determined from the dose response curve.
# [6] = molecular target: p38 MAPKα (Homo sapiens (Human), UniProt Q16539); experiment: p38 MAPKα enzyme inhibition (Z-LYTE FRET, Method 2); format: biochemical
# Protocol: as §1
# The inhibitory activities of test compounds against the p38 MAPKα isoform (MAPK14: Invitrogen), are evaluated indirectly by determining the level of activation/phosphorylation of the down-stream molecule, MAPKAP-K2. The p38 MAPKα protein (80 ng/mL, 2.5 μL) is mixed with the test compound (2.5 μL of either 4 μg/mL, 0.4 μg/mL, 0.04 μg/mL or 0.004 μg/mL) for 2 hr at RT. […] The mixture is incubated for 1 hr at RT. Development reagent (protease, 5 μL) is added for 1 hr prior to detection in a fluorescence microplate reader (Varioskan® Flash, ThermoFisher Scientific).
# as §3
# [7] = read-out: IC50 Values for Inhibition of Cytokine Release PBMCs IL-2
# [8] = read-out: IC50 Values for Inhibition of Cytokine Release PBMCs IFNγ
# p38 MAPKα, sequence (Q16539 whole entry): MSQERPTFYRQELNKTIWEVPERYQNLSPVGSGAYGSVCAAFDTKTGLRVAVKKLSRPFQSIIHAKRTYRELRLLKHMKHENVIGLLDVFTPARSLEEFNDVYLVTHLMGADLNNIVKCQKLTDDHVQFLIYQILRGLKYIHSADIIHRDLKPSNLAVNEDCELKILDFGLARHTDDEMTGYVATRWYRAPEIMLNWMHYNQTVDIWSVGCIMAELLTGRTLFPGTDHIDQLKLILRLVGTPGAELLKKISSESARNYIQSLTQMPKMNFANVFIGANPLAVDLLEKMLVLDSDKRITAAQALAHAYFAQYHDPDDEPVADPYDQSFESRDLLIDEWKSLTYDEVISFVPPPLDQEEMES
# GSK3α, sequence (P49840 whole entry): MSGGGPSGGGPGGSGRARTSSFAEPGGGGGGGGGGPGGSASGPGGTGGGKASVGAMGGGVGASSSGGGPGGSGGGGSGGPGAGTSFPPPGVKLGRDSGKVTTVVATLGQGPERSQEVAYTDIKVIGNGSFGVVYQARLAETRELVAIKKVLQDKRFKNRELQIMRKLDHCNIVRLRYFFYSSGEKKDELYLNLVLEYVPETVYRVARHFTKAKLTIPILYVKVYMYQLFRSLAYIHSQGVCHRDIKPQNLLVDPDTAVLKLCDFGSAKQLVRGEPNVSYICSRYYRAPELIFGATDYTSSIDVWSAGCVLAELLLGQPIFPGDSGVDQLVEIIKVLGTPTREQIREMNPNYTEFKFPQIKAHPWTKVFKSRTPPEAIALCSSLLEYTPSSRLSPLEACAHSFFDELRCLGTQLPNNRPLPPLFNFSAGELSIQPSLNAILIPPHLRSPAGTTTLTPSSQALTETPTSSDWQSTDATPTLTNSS
# c-Src, sequence (P12931 whole entry, looked up): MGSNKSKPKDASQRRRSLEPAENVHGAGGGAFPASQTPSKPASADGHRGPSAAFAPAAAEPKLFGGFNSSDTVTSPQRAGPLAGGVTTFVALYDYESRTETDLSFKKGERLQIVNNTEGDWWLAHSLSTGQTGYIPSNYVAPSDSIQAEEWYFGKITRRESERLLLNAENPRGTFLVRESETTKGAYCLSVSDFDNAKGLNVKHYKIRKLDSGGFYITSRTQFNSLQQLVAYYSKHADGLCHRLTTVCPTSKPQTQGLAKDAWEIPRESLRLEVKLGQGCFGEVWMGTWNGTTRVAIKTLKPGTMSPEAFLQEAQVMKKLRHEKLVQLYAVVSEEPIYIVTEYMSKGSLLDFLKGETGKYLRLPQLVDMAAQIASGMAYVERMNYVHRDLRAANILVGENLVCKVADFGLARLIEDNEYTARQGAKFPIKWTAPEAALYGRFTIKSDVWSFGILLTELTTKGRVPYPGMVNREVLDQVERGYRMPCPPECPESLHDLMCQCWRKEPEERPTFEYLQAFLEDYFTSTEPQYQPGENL
Compound,IC50 [1] [nM],IC50 [2] [nM],IC50 [3] [nM],IC50 [4] [nM],"IC50 [5, 7] [nM]",IC50 [6] [nM],"IC50 [5, 8] [nM]"
"C#Cc1cccc(Nc2nccc(Oc3ccc(NC(=O)Nc4cc(C(C)C)nn4-c4ccc(C)cc4)c4ccccc34)n2)c1 [Example 10, 1-(4-((2-((3-Ethynylphenyl)amino)pyrimidin-4-yl)oxy)naphthalen-1-yl)-3-(3-isopropyl-1-(p-tolyl)-1H-pyrazol-5-yl)urea]",7.9,807,137,–,–,–,–
"C#Cc1cc(Nc2nccc(Oc3ccc(NC(=O)Nc4cc(C(C)C)nn4-c4ccc(C)cc4)c4ccccc34)n2)cc(OC)c1 [Example 15, 1-(4-((2-((3-Ethynyl-5-methoxyphenyl)amino)pyrimidin-4-yl)oxy)naphthalen-1-yl)-3-(3-isopropyl-1-(p-tolyl)-1H-pyrazol-5-yl)urea]",6.1,> 1600,> 1600,–,–,–,–
"Cc1ccc(-n2nc(C(C)C)cc2NC(=O)Nc2ccc(Oc3ccnc(Nc4cccc(OCCOCCOCCO)c4)n3)c3ccccc23)cc1 [Example 19, 1-(4-((2-((3-(2-(2-(2-Hydroxyethoxy)ethoxy)ethoxy)phenyl)amino)pyrimidin-4-yl)oxy)-naphthalen-1-yl)-3-(3-isopropyl-1-(p-tolyl)-1H-pyrazol-5-yl)urea]",1.2,20,5,1070,–,–,–
"COCCOCCOCCOc1cc(Nc2nccc(Oc3ccc(NC(=O)Nc4cc(C(C)C)nn4-c4ccc(C)cc4)c(Cl)c3Cl)n2)cc(OC)c1 [Example 35, 1-(2,3-Dichloro-4-((2-((3-methoxy-5-(2-(2-(2-methoxyethoxy)ethoxy)ethoxy)phenyl)-amino)pyrimidin-4-yl)oxy)phenyl)-3-(3-isopropyl-1-(p-tolyl)-1H-pyrazol-5-yl)urea]",2.1,–,15,> 10000,9.8,487,–
"COCCOCCOCCOc1cc(Nc2nccc(Oc3ccc(NC(=O)Nc4cc(C(F)(F)C(F)(F)F)nn4-c4ccc(C)cc4)c4ccccc34)n2)cc(OC)c1 [Example 39, 1-(4-((2-((3-Methoxy-5-(2-(2-(2-methoxyethoxyl)ethoxy)ethoxy)phenyl)amino)pyrimidin-4-yl)oxy)naphthalen-1-yl)-3-(3-(perfluoroethyl)-1-(p-tolyl)-1H-pyrazol-5-yl)urea]",5.5,–,–,9540,–,433,–
"COCCOCCOCCOc1cc(Nc2nccc(Oc3ccc(NC(=O)Nc4cc(C(C)(C)C(F)(F)F)nn4-c4ccc(C)cc4)c4ccccc34)n2)cc(OC)c1 [Example 40, 1-(4-((2-((3-Methoxy-5-(2-(2-(2-methoxyethoxyl)ethoxy)ethoxy)phenyl)amino)pyrimidin-4-yl)oxy)naphthalen-1-yl)-3-(1-(p-tolyl)-3-(1,1,1-trifluoro-2-methylpropan-2-yl)-1H-pyrazol-5-yl)urea]",7.2,–,–,8170,175,–,1
"COc1cc(Nc2nccc(Oc3ccc(NC(=O)Nc4cc(C(C)(C)C)nn4-c4ccc(C)cc4)c4ccccc34)n2)cc(SCCN2CCOCC2)c1 [Example 41, 1-(3-(tert-Butyl)-1-(p-tolyl)-1H-pyrazol-5-yl)-3-(4-((2-((3-methoxy-5-((2-morpholinoethyl)-thio)phenyl)amino)pyrimidin-4-yl)oxy)naphthalen-1-yl)urea]",4.8,–,–,2820,80.3,224,2.5
"COc1cc(Nc2nccc(Oc3ccc(NC(=O)Nc4cc(C(C)(C)C)nn4-c4ccc(C)cc4)c4ccccc34)n2)cc(S(=O)(=O)CCCN2CCOCC2)c1 [Example 43, 1-(3-(tert-Butyl)-1-(p-tolyl)-1H-pyrazol-5-yl)-3-(4-((2-((3-methoxy-5-((3-morpholinopropyl)-sulfonyl)phenyl)amino)pyrimidin-4-yl)oxy)naphthalen-1-yl)urea]",2.9,–,–,531,78.7,–,2.2
"COc1cc(Nc2nccc(Oc3ccc(NC(=O)Nc4cc(C(C)(C)C)nn4-c4ccc(C)cc4)c4ccccc34)n2)cc(SCCCO)c1 [Example 48, 1-(3-(tert-Butyl)-1-(p-tolyl)-1H-pyrazol-5-yl)-3-(4-((2-((3-((3-Hydroxypropyl)thio)-5-methoxyphenyl)amino)pyrimidin-4-yl)oxy)naphthalen-1-yl)urea]",3,37,–,2050,49.2,195,–
"COCCOCCOCCOc1cc(C#N)cc(Nc2nccc(Oc3ccc(NC(=O)Nc4cc(C(C)(C)C)nn4-c4ccc(C)cc4)c4ccccc34)n2)c1 [Example 52, 1-(3-(tert-Butyl)-1-(P-tolyl)-1H-pyrazol-5-yl)-3-(4-((2-((3-cyano-5-(2-(2-(2-methoxyethoxy)-ethoxy)ethoxy)phenyl)amino)pyrimidin-4-yl)oxy)naphthalen-1-yl)urea]",15,–,–,> 13000,–,–,–
"C#Cc1cc(Nc2nccc(Oc3ccc(NC(=O)Nc4cc(C(C)(C)C)nn4-c4ccc(C)cc4)c4ccccc34)n2)cc(OCCOCCOCCOC)c1 [Example 54, 1-(3-(tert-Butyl)-1-(p-tolyl)-1H-pyrazol-5-yl)-3-(4-((2-((3-ethynyl-5-(2-(2-(2-methoxyethoxy)ethoxy)ethoxy)phenyl)amino)pyrimidin-4-yl)oxy)naphthalen-1-yl)urea]",4.5,–,–,> 10000,–,–,–
"COCCOCCOCCOc1cc(Cl)cc(Nc2nccc(Oc3ccc(NC(=O)Nc4cc(C(C)(C)C)nn4-c4ccc(C)cc4)c4ccccc34)n2)c1 [Example 64, 1-(3-(tert-Butyl)-1-(p-tolyl)-1H-pyrazol-5-yl)-3-(4-((2-((3-chloro-5-(2-(2-(2-methoxyethoxy)-ethoxy)ethoxy)phenyl)amino)pyrimidin-4-yl)oxy)naphthalen-1-yl)urea]",9.5,–,–,> 10000,–,–,–
"COc1cc(Nc2nccc(Oc3ccc(NC(=O)Nc4cc(C(C)(C)C)nn4-c4ccc(C)cc4)c(Cl)c3Cl)n2)cc(OCCCN2CCOCC2)c1 [Example 65, 1-(3-(tert-Butyl)-1-(p-tolyl)-1H-pyrazol-5-yl)-3-(2,3-dichloro-4-((2-((3-methoxy-5-(3-morpholinopropoxyl)phenyl)amino)pyrimidin-4-yl)oxy)phenyl)urea]",3.5,–,–,> 10000,37,–,2.8
"COCCOCCOCCOc1cc(Nc2nccc(Oc3ccc(NC(=O)Nc4cc(C(C)(C)C)nn4-c4ccc(C)cc4)c4ccccc34)n2)cc(N(C)C)c1 [Example 66, 1-(3-(tert-Butyl)-1-(p-tolyl)-1H-pyrazol-5-yl)-3-(4-((2-((3-(dimethylamino)-5-(2-(2-(2-methoxyethoxy)ethoxy)ethoxy)phenyl)amino)pyrimidin-4-yl)oxy)naphthalen-1-yl)urea]",2.6,–,–,3390,–,–,–
"COCCOCCOCCOc1cc(Nc2nccc(Oc3ccc(NC(=O)Nc4cc(C(C)(C)C)nn4-c4ccc(C)cc4)c4ccccc34)n2)cc(OC)c1Cl [Example 72, 1-(3-(tert-Butyl)-1-(p-tolyl)-1H-pyrazol-5-yl)-3-(4-((2-((4-chloro-3-methoxy-5-(2-(2-(2-methoxyethoxyl)ethoxy)ethoxy)phenyl)amino)pyrimidin-4-yl)oxy)naphthalen-1-yl)urea]",–,75,–,> 10000,35.1,377,3.3
